Each compound was assayed against T1, HMG-CoA synthase (Rattus norvegicus, UniProt P17425) (assay: HMG-CoA synthase inhibition assay). Settings: Table I; n is 1, R3 is H.
T1 construct: The livers from male Charles River CD rats (225-350 g) were homogenized; from tissue; host or cells: rat liver (male Charles River CD rats), 100,000×g supernatant, ammonium sulfate precipitate, DEAE-52 fraction
T1 sequence (P17425 1-520): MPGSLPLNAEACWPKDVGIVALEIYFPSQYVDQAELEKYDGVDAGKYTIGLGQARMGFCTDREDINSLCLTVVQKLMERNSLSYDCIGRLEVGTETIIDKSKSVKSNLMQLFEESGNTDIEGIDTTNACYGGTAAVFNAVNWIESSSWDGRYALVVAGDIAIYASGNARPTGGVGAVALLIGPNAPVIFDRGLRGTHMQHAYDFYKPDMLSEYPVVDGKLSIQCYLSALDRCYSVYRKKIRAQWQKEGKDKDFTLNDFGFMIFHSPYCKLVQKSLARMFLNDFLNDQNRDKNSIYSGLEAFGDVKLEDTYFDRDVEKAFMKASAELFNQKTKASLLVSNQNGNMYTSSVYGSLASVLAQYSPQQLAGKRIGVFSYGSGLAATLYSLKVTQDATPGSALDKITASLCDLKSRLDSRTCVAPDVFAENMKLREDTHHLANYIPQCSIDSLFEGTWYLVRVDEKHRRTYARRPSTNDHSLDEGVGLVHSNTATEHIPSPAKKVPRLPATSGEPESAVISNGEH
Type: biochemical
Procedure: The intrinsic HMG-CoA synthase inhibition activity of the compounds of this invention is measured by the standard in vitro protocol described below:
The livers from male Charles River CD rats (225-350 g) were homogenized in 0.25M sucrose which was adjusted with phenylmethylsulfonylfluoride (PMSF) and N-p-tosyl-l-lysine chloromethyl ketone (TLCK) so that the final concentration of each was […], respectively. The homogenate was centrifuged at 15,000×g for 20 minutes, the supernatant filtered through a fine nylon screen to remove most of the fat layer and recentrifuged at 100,000×g for 1 hour. This supernatant was removed and 1M potassium phosphate, dithiothreitol (DTT) and ethylene glycolbis(β-aminoethyl ether)-N,N,N',N'-tetraacetic acid (EGTA) added to give a final concentration of 0.1M (pH 7.2), 0.5 mM and 0.1 mM, respectively. Solid ammonium sulfate was added to 50% saturation to the protein solution, it was centrifuged at 15,000×g and the supernatant discarded. This precipitated protein could be stored at -70° C. for at least one month with very little loss of activity. The ammonium sulfate precipitate was dissolved in an minimal amount of 0.06M potassium phosphate buffer (pH 7.2) containing 0.5 mM dithiothreitol and 0.1 mM EGTA (referred to as 0.06M phosphate buffer) and dialyzed overnight against 2 liters of the same buffer to remove the ammonium sulfate and to inactivate HMG-CoA lyase [Clinkenbeard, et al., J. Biol. Chem. 250, 3108-3116(1975)].
The dialyzed extract was added to a column of DEAE-52 (Whatman) which had been equilibrated with 0.06M phosphate buffer (10 mg of protein to 1 ml bed volume of the resin). The DEAE-cellulose was eluted with 0.06M phosphate buffer until the optical density at 280 nm was essentially zero. This fraction contained the β-ketoacetyl-CoA thiolase activity. The HMG-CoA synthase was eluted from the column with 0.1M phosphate buffer (pH 7.2) containing 0.5 mM DTT and 0.1 mM EGTA, and was virtually free of all thiolase activity. The protein was precipitated by the addition of ammonium sulfate to give 50% saturation. This solution was stirred for 10 minutes at 4° C. and the precipitate collected by centrifugation at 15,000 rpm for 10 minutes. The supernatant was discarded and the precipitate dissolved in a minimum of 0.06M phosphate buffer, pH 7.2 (about 10 ml) and the enzyme stored at -80° C.
HMG-CoA Synthase Inhibition Assay
Enzyme protein (ca. 24 mg) was added to a solution containing […] (pH 8.0), 11.7 μM MgCl2, 1.17 μM ethylenediaminetetraacetic acid (EDTA), 0.58 μM dithiothreitol, and the indicated concentrations of the test compound (added as a 2 mg/ml solution in dimethylsulfoxide). The incubation took place in a volume of 0.085 ml at 30° in a shaking water bath. After 5 minutes, […] of a solution containing acetoacetyl-CoA and 0.1 μCi of 1-[^14 C]-acetyl-CoA was added to give a final concentrations of 0.1 and 0.4 μM, respectively. The incubation was continued for 10 more minutes and the reaction stopped by the addition of […] of the assay mixture to 0.2 ml of 6N HCl in a glass scintillation vial. The vial was heated for 1 hour at 120° after which time 0.2 ml more of 6N HCl was again added to each vial and the heating continued for another hour. Following this, 1.0 ml of 0.9% saline was added to each vial and finally 10 ml of scintillation liquid. Radioactivity was determined in a Packard Tri-Carb liquid scintillation counter.
Percent inhibition is calculated by the formula: [formula]
IC50 values were determined by plotting the log of the concentration of the test compound verses the percentage inhibition and fitting a straight line to the resulting data by using the least squares method.
For Cc1ccc(S(=O)(=O)N2C(=O)C[C@H]2CSc2ccccc2)cc1 [Table I i), (4S)-4-Thiophenoxymethyl-N-toluenesulfonyl-2-azetidinone], the IC50 was 70 nM. Work on Cc1ccc(S(=O)(=O)N2C(=O)C[C@H]2C[S+]([O-])c2ccccc2)cc1 (stereo partly drawn) [Table I ii)] yielded an IC50 of 120 nM. Compound Cc1ccc(S(=O)(=O)N2C(=O)C[C@H]2CS(=O)(=O)c2ccccc2)cc1 [Table I iii), (4S)-4-Phenylsulfonymethyl-N-toluenesulfonyl-2-azetidinone] has an IC50 of 120 nM. COC(=O)c1ccc(OC[C@@H]2CC(=O)N2S(=O)(=O)c2ccc(C)cc2)cc1 [Table I iv), (4S)-4-p-Methoxycarbonylphenoxymethyl-N-toluenesulfonyl-2-azetidinone] showed an IC50 of 46 nM. Cc1ccc(S(=O)(=O)N2C(=O)C[C@H]2CI)cc1 [Table I v)] showed an IC50 of 820 nM.

Same assay, conditions: Table II; n is 1, R3 is C1-5 alkyl
In the case of CC[C@@H]1C(=O)N(S(=O)(=O)c2ccc(C)cc2)[C@@H]1CSc1ccccc1 (relative stereo) [Table II i)], the IC50 is reported as 120 nM. CC[C@@H]1C(=O)N(S(=O)(=O)c2ccc(C)cc2)[C@@H]1COC (relative stereo) [Table II ii), (±)-cis-3-Ethyl-4-methoxymethyl-N-toluenesulfonyl-2-azetidinone] gave an IC50 of 67 nM. Work on CC[C@@H]1C(=O)N(S(=O)(=O)c2ccc(C)cc2)[C@@H]1CF (relative stereo) [Table II iii), (±)-cis-3-Ethyl-4-fluoromethyl-N-toluenesulfonyl-2-azetidinone] yielded an IC50 of 60 nM.

Same assay, conditions: Table III; n is 2, R3 is H
Compound COC(=O)c1ccc(OCCC2CC(=O)N2S(=O)(=O)c2ccc(C)cc2)cc1 (racemic) [Table III i), (±)-4-(2-p-Methoxycarbonylphenoxy)ethyl-N-toluenesulfonyl-2-azetidinone] has an IC50 of 66 nM. Compound Cc1ccc(S(=O)(=O)N2C(=O)CC2CCOCc2ccccc2)cc1 (racemic) [Table III ii), (±)-4-(2-Benzyloxy)ethyl-N-toluenesulfonyl-2-azetidinone] has an IC50 of 90 nM. Work on Cc1ccc(S(=O)(=O)N2C(=O)CC2CCOC(c2ccccc2)c2ccccc2)cc1 (racemic) [Table III iii), (±)-4-(2-Diphenylmethoxy)ethyl-N-toluenesulfonyl-2-azetidinone] yielded an IC50 of 61 nM.

Same assay, conditions: Table IV; n is 2, R3 is CH3CH2 or CH3OCH2
Work on CC[C@@H]1C(=O)N(S(=O)(=O)c2ccc(C)cc2)[C@@H]1CCOc1ccc(C(=O)OC)cc1 (relative stereo) [Table IV i), (±)-cis-3-Ethyl-4-(2-p-methoxycarbonylphenoxy)ethyl-N-toluenesulfonyl-2-azetidinone] yielded an IC50 of 65 nM. Compound COC[C@H]1C(=O)N(S(=O)(=O)c2ccc(C)cc2)[C@@H]1CCOc1ccc(C(=O)OC)cc1 (relative stereo) [Table IV ii)] has an IC50 of 1400 nM. Work on CC[C@@H]1C(=O)N(S(=O)(=O)c2ccc(C)cc2)[C@@H]1CCS(=O)(=O)c1ccccc1 (relative stereo) [Table IV iii), (±)-3-Ethyl-4-(2-phenylsulfonyl)ethyl-N-toluenesulfonyl-2-azetidinone] yielded an IC50 of 640 nM.

Same assay, conditions: Table V; n is 3, R3 is H
In the case of COC(=O)c1ccc(OCCCC2CC(=O)N2S(=O)(=O)c2ccc(C)cc2)cc1 (stereo not drawn) [Table V i)], the IC50 is reported as 190 nM. Cc1ccc(S(=O)(=O)N2C(=O)CC2CCCOc2ccccc2)cc1 (stereo not drawn) [Table V ii)] was tested, and the IC50 was 140 nM. Compound Cc1ccc(S(=O)(=O)N2C(=O)CC2CCCBr)cc1 (stereo not drawn) [Table V iii)] has an IC50 of 130 nM.

Same assay, conditions: Table VI; n is 4
COCC1C(=O)N(S(=O)(=O)c2ccc(C)cc2)C1CCCCC(C)CC(C)=CC(C)=CC(=O)OC [Table VI i), (3R,4R,5'R)-(E,E)-3-Methoxymethyl-4-(10'-methoxycarbonyl-5',7',9'-trimethyl-7',9'-decadienyl)-N-toluensulfonyl-2-azetidinone] gave an IC50 of 3600 nM.

Source: patent US5120729A, “Beta-lactams as antihypercholesterolemics” (Merck & Co., Inc., priority 1990, dated 1992)
